Patent publication US5674878A, “Anellated dihydropyridines and the use thereof for the production of pharmaceutical preparations” (Boehringer Ingelheim KG, priority 1992, dated 1997)

System: unselective cation channels (UCC)
Experiment: Thapsigargin (0.1 μM) stimulated Ca^2+ entry through unselective cation channels in fura-2-charged RBL-hm 1 cells
Format: cell-based, rat
Conditions: for % Inhib. / % / percent inhibition of Ca2+ entry: 10 μM test substance; for %: Table 16, %inhibition; for % Inhibition: RBL-hm 1 cells, Thapsigargin (0.1 μM) stimulation, 10 μM test substance (Table 21)
Description: As a measurement of the cell activation or as a measurement of the inhibition thereof by UCC blockers, the kinetics of the cytoplasmic calcium ion concentration in fura-2-charged cells is quantified fluorometrically using the method described by GRYNKIEWICZ et al. (1985).
Consequently the Ca^2+ -stores are rapidly depleted. As described by J. PUTNEY (Calcium, 11, 611-624, 1990) the depletion of these stores constitutes the physiological stimulation for opening up unselective cation channels in the cell membrane. The result of this is a massive influx of Na^+ and Ca^2+ into the cell. Because of these properties, Thapsigargin is suitable as an indirect stimulator for agonist- and IP3-independent opening up of the unselective cation channels.
The functional endothelin antagonism of the substances according to the invention is mediated through a blockade of the unselective cation channels. Consequently, detection of a functional Thapsigargin-antagonism on RBL-hm1 cells is also a suitable screening method for functional endothelin antagonists.
For screening purposes, fura-2-charged adhesive RBL-hm 1 cells are stimulated with 0.1 μM Thapsigargin in a Ca^2+ -free incubation medium. After 4 minutes, extracellular Ca^2+ is restored to a concentration of 1.5 mM and, using the fura-2-fluorescence, the excessive increase in the cytoplasmic Ca^2+ -concentration caused by a massive transmembranal Ca^2+ -entry through unselective cation channels is recorded.
This entry is to be inhibited solely by unselective cation channel blockers in a dosage-dependent manner. Neither conventional calcium antagonists nor specific blockers of agonists which stimulate the IP3 -turnover are able to inhibit the transmembranal Ca^2+ -entry triggered indirectly by Thapsigargin. The compounds of the present invention are distinguished by their inhibition of UCC.
The fluorometric calcium measurement in the cytoplasm of individual adhering RBL-hm1 cells is carried out analogously to the method described by KUDO and OGURA (1986) for neuronal cells. An AXIOVERT 35 fluorescence microscope made by ZEISS is used in conjunction with an imaging system made by HAMAMATSU, consisting of the ICMS-image processing system, residual light camera with control unit and image intensifier DVS 3000.
The kinetics of the cytoplasmic Ca^2+ -concentration is recorded continuously as a concentration/time curve after the cell activation stimulated by Thapsigargin (0.1 μM). The curves of two activated cell cultures are compared in the presence and absence of 10 μM test substance. The area under these curves (area under the curve=AUC) is integrated and recorded as a measurement of cell activation. The inhibitory potency of the UCC-blockers tested is determined using the following equation: [formula] %H=the percentage inhibition of the calcium entry through unselective cation channels which is stimulated and inhibited by 10 μM of test substance.
AUCinh =area under the curve recorded in the presence of the stimulant plus 10 μM inhibitory test substance.
AUCcontrol =area under the curve which is recorded only after the addition of the stimulant.
The percentage inhibition of UCC after Thapsigargin stimulation (0.1 μM Thapsigargin) in RBL-hm 1 cells is given. The uniform concentration of the test substances is 10^-5 mol).

## NS(=O)(=O)c1ccc(CCNC(=O)C(=C2NCCc3ccsc32)c2ccccc2)cc1
Table 13
  % Inhib.: 50.64%

## COc1ccc(CCNC(=O)C(C2=NCCc3ccsc32)c2ccccc2)cc1 (centres unmarked)
Table 13
  % Inhib.: 67.73%

## COc1ccc(CCNC(=O)C(=C2NCCc3ccsc32)c2ccccc2)cc1
Table 13
  % Inhib.: 65.50%

## CCOc1ccccc1CCNC(=O)C(C1=NCCc2ccsc21)c1ccccc1 (centres unmarked)
Table 13
  % Inhib.: 24.03%

## O=C(NCCc1cccc(C(F)(F)F)c1)C(C1=NCCc2ccsc21)c1ccccc1 (centres unmarked)
Table 13
  % Inhib.: 43.49%

## O=C(NCCc1ccc(Cl)cc1)C(C1=NCCc2ccsc21)c1ccccc1 (centres unmarked)
Table 13
  % Inhib.: 15.26%

## O=C(NCCc1ccc(Cl)cc1)C(=C1NCCc2ccsc21)c1ccccc1
Table 13
  % Inhib.: 26.54%

## O=C(NCCc1ccsc1)C(C1=NCCc2ccsc21)c1ccccc1 (centres unmarked)
Table 13
  % Inhib.: 0.0%

## O=C(NCCc1ccsc1)C(=C1NCCc2ccsc21)c1ccccc1
Table 13
  % Inhib.: 67.75%

## COc1cc2c(cc1OC)C(C(C(=O)NCCc1ccc(S(N)(=O)=O)cc1)c1ccccc1)=NCC2 (centres unmarked)
Table 14
  % Inhib.: 79.17%

## COc1cc2c(cc1OC)C(C(C(=O)NCCCc1ccccc1)c1ccccc1)=NCC2 (centres unmarked)
Table 14
  % Inhib.: 73.55%

## COc1cc2c(cc1OC)C(C(C(=O)NCCC1CCCN1C)c1ccccc1)=NCC2 (centres unmarked)
Table 14
  % Inhib.: 60.82%

## COc1cc2c(cc1OC)C(C(C(=O)NC(C)CCc1ccccc1)c1ccccc1)=NCC2 (centres unmarked)
Table 14
  % Inhib.: 82.76%

## COc1ccc(CNC(=O)C(C2=NCCc3cc(OC)c(OC)cc32)c2ccccc2)cc1OC (centres unmarked)
Table 14
  % Inhib.: 50.90%

## COc1ccc(CNC(=O)C(C2=NCCc3cc(OC)c(OC)cc32)c2ccccc2)c(OC)c1 (centres unmarked)
Table 14
  % Inhib.: 56.20%

## COc1cc2c(cc1OC)C(C(C(=O)N(CCCc1ccccc1)CCCc1ccccc1)c1ccccc1)=NCC2 (centres unmarked)
Table 14
  % Inhib.: 22.39%

## COc1cc2c(cc1OC)C(C(C(=O)NCCc1ccc(C)cc1)c1ccccc1)=NCC2 (centres unmarked)
Table 14
  % Inhib.: 79.60%

## COc1cc2c(cc1OC)C(C(C(=O)NCCc1ccc(Cl)c(OCc3ccccc3)c1)c1ccccc1)=NCC2 (centres unmarked)
Table 14
  % Inhib.: 36.71%

## COc1cc2c(cc1OC)C(C(C(=O)NCC1CCCCC1)c1ccccc1)=NCC2 (centres unmarked)
Table 14
  % Inhib.: 30.87%

## COc1cc2c(cc1OC)C(C(C(=O)NCCCc1ccc(C(C)(C)C)cc1)C1CCCCC1)=NCC2 (centres unmarked)
Table 15
  % Inhib.: 84.43%

## COc1ccc2c(c1)CCN=C2C(C(=O)NCCc1cccc(C(F)(F)F)c1)c1ccccc1 (centres unmarked)
  %: 30.41%

## O=C(NCCc1cccc(C(F)(F)F)c1)C(C1=NCCc2cc(OCc3ccccc3)ccc21)c1ccccc1 (centres unmarked)
  %: 14.65%

## Cc1cc2c(cc1OCc1ccccc1)CCN=C2C(C(=O)NCCc1cccc(C(F)(F)F)c1)c1ccccc1 (centres unmarked)
  %: 49.03%
Table 20
  percent inhibition of Ca2+ entry: 49.03%

## COc1cc2c(cc1OCc1ccccc1)CCN=C2C(C(=O)NCCc1cccc(C(F)(F)F)c1)c1ccccc1 (centres unmarked)
  %: 31.8%

## COc1cc2c(cc1OCc1ccccc1)C(C(C(=O)NCCc1cccc(C(F)(F)F)c1)c1ccccc1)=NCC2 (centres unmarked)
  %: 22.9%

## COc1cc2c(cc1C)C(C(C(=O)N(Cc1ccccc1)Cc1ccccc1)c1ccccc1)=NCC2 (centres unmarked)
  %: 58.3%

## COc1cc(N=[N+]=[N-])c(I)cc1CCNC(=O)C(C1=NCCc2cc(OC)c(OC)cc21)c1ccccc1 (centres unmarked)
Table 17
  percent inhibition of Ca2+ entry: 36.95%

## COc1ccccc1CCNC(=O)C(C1=NCCc2cc(OC)c(OC)cc21)c1ccccc1 (centres unmarked)
Table 17
  percent inhibition of Ca2+ entry: 69.7%

## COc1ccc(CCN(CC(C)C)C(=O)C(C2=NCCc3cc(OC)c(OC)cc32)c2ccccc2)cc1OC (centres unmarked)
Table 17
  percent inhibition of Ca2+ entry: 12.82%

## COc1cc2c(cc1OC)C(C(C(=O)NCCOc1cccc3ccccc13)c1ccccc1)=NCC2 (centres unmarked)
Table 17
  percent inhibition of Ca2+ entry: 59%

## COc1cc2c(cc1OC)C(C(C(=O)NC(C)COc1c(C)cccc1C)c1ccccc1)=NCC2 (centres unmarked)
Table 17
  percent inhibition of Ca2+ entry: 72.18%

## COc1cccc(OCCN2CCN(C(=O)C(C3=NCCc4cc(OC)c(OC)cc43)c3ccccc3)CC2)c1 (centres unmarked)
Table 17
  percent inhibition of Ca2+ entry: 41.06%

## COc1cc2c(cc1OC)C(C(C(=O)N1CCN(c3nc(N)c4cc(OC)c(OC)cc4n3)CC1)c1ccccc1)=NCC2 (centres unmarked)
Table 17
  percent inhibition of Ca2+ entry: 7.77%

## COc1cccc(OCCNC(=O)C(C2=NCCc3cc(OC)c(OC)cc32)c2ccccc2)c1 (centres unmarked)
Table 17
  percent inhibition of Ca2+ entry: 45.26%

## COc1ccc2c(c1)CCN(C(=O)C(C1=NCCc3cc(OC)c(OC)cc31)c1ccccc1)C2 (centres unmarked)
Table 17
  percent inhibition of Ca2+ entry: 33.06%

## COc1cc2c(cc1OC)C(C(C(=O)NC(C)(C)C)c1ccccc1)=NCC2 (centres unmarked)
Table 17
  percent inhibition of Ca2+ entry: 81.60%

## COc1cc2c(cc1OC)C(C(C(=O)NCC(C)(C)C)c1ccccc1)=NCC2 (centres unmarked)
Table 17
  percent inhibition of Ca2+ entry: 81.51%

## COc1cc2c(cc1OC)C(C(C(=O)N(CCc1ccc(OC)c(OC)c1OC)CCc1ccc(OC)c(OC)c1OC)c1ccccc1OC)=NCC2 (centres unmarked)
Table 18
  percent inhibition of Ca2+ entry: 41.8%

## COc1cccc(C(C(=O)N(CCc2ccc(OC)c(OC)c2OC)CCc2ccc(OC)c(OC)c2OC)C2=NCCc3cc(OC)c(OC)cc32)c1 (centres unmarked)
Table 18
  percent inhibition of Ca2+ entry: 24.3%

## COc1ccc(C(C(=O)N(CCc2ccc(OC)c(OC)c2OC)CCc2ccc(OC)c(OC)c2OC)C2=NCCc3cc(OC)c(OC)cc32)cc1 (centres unmarked)
Table 18
  percent inhibition of Ca2+ entry: 73.7%

## COc1ccc(C(C(=O)N(CCc2ccc(OC)c(OC)c2OC)CCc2ccc(OC)c(OC)c2OC)C2=NCCc3cc(OC)c(OC)cc32)cc1OC (centres unmarked)
Table 18
  percent inhibition of Ca2+ entry: 53.1%

## COc1cc2c(cc1OC)C(C(C(=O)N(CCc1ccc(OC)c(OC)c1OC)CCc1ccc(OC)c(OC)c1OC)c1ccccc1C)=NCC2 (centres unmarked)
Table 18
  percent inhibition of Ca2+ entry: 68.22%

## COc1cc2c(cc1OC)C(C(C(=O)N(CCc1ccc(OC)c(OC)c1OC)CCc1ccc(OC)c(OC)c1OC)c1ccc(Cl)cc1Cl)=NCC2 (centres unmarked)
Table 18
  percent inhibition of Ca2+ entry: 30.79%

## COc1cc2c(cc1OC)C(C(C(=O)N(CCc1ccc(OC)c(OC)c1OC)CCc1ccc(OC)c(OC)c1OC)c1ccc(F)cc1)=NCC2 (centres unmarked)
Table 18
  percent inhibition of Ca2+ entry: 54.30%

## COc1cc2c(cc1OC)C(C(C(=O)N(CCc1ccc(OC)c(OC)c1OC)CCc1ccc(OC)c(OC)c1OC)c1ccc(N=[N+]=[N-])cc1)=NCC2 (centres unmarked)
Table 18
  percent inhibition of Ca2+ entry: 61.3%

## COc1cc2c(cc1OC)C(C(C(=O)N(CCc1ccc(OC)c(OC)c1OC)CCc1ccc(OC)c(OC)c1OC)c1ccc(N=[N+]=[N-])c(I)c1)=NCC2 (centres unmarked)
Table 18
  percent inhibition of Ca2+ entry: 5.81%

## COc1cc2c(cc1OC)C(C(CC1CCC1)C(=O)N(CCc1ccc(OC)c(OC)c1OC)CCc1ccc(OC)c(OC)c1OC)=NCC2 (centres unmarked)
Table 18
  percent inhibition of Ca2+ entry: 56.0%

## COc1ccccc1CCNC(=O)C(C1=NCCc2cc(OC)c(OC)cc21)c1ccc(N=[N+]=[N-])cc1 (centres unmarked)
Table 19
  percent inhibition of Ca2+ entry: 50.58%

## CCOc1ccccc1CCNC(=O)C(=C1NCCc2cc(OC)c(OC)cc21)c1ccccc1 (single isomer, unassigned) [K]
  % Inhibition: 76.31%

## COc1cc2c(cc1OC)C(=C(C(=O)NCCc1c(OC)cccc1OC)c1ccccc1)NCC2 (single isomer, unassigned) [L]
  % Inhibition: 53.14%

## COc1cc2c(cc1OC)C(C(C(=O)N(CCc1ccc(OC)c(OC)c1OC)CCc1ccc(OC)c(OC)c1OC)c1ccccc1)=NCC2 (centres unmarked) [38a (oxalate)]
  % Inhibition: 52.64%

## COc1cc2c(cc1OC)C(C(C(=O)N1CCCC1)c1ccccc1)=NCC2 (centres unmarked) [41 (Structure I)]
  % Inhibition: 57.22%

## COc1cc2c(cc1OC)C(C(C(=O)NCCc1ccc(OC)c(OC)c1OC)c1ccccc1)=NCC2 (centres unmarked) [B]
  % Inhibition: 72.35%

## COc1cc2c(cc1OC)C(C(C(=O)NCC(c1ccccc1)c1ccccc1)c1ccccc1)=NCC2 (centres unmarked) [C]
  % Inhibition: 63.45%

## COc1cc2c(cc1OC)C(C(C(=O)NCCc1cccc(C(F)(F)F)c1)c1ccccc1)=NCC2 (centres unmarked) [E]
  % Inhibition: 81.89%

## COc1cc2c(cc1OC)C(C(C(=O)NCc1c(F)cccc1OC)c1ccccc1)=NCC2 (centres unmarked) [F]
  % Inhibition: 48.01%

## COc1cc2c(cc1OC)C(=C(C(=O)NCCc1cccc(OC)c1OC)c1ccccc1)NCC2 [G]
  % Inhibition: 57.52%

## COc1cc2c(cc1OC)C(C(C(=O)NCC13CC4CC(CC(C4)C1)C3)c1ccccc1)=NCC2 (centres unmarked) [HNCH2-1-Adam.]
Table 17
  percent inhibition of Ca2+ entry: 65.1%

## COc1cc2c(cc1OC)C(=C(C(=O)NC(C)COc1ccccc1)c1ccccc1)NCC2 (centres unmarked) [H]
  % Inhibition: 57.06%

## COc1cc2c(cc1OCc1ccccc1)CCN=C2C(C(=O)NCCC(C)(C)C)c1ccccc1 (centres unmarked) [NHCH2 CH2C(CH3)3]
Table 20
  percent inhibition of Ca2+ entry: 61.85%

## COc1cc2c(cc1OC)C(C(C(=O)NCCc1ccsc1)c1ccccc1)=NCC2 (centres unmarked) [O]
  % Inhibition: 63.32%
